Experimental data from US20090043129A1 (priority 2005, published 2009).
pEC50, pIC50, pKi: −log10 of the molar value. Read-outs that look alike come from different tables or passages of the source.

Key:
[1] = test system: Anandamide Membrane Transporter (AMT); test: Anandamide uptake by RBL-2H3 cells; type: cell-based
Method: Assay for the Anandamide Membrane Transporter (AMT)
The effect of the compounds on the uptake of anandamide by the RBL-2H3 cells was studied as described (Di Marzo et al., 2002). Cells were incubated with [^14C]anandamide (4 μM) for 5 minutes at 37° C., in the presence or absence of varying concentrations of the inhibitors. Residual [^14C]anandamide in the incubation media after extraction with CHCl3/CH3OH (2:1 by volume) was used as a measure of the anandamide that was taken up by cells. Data are expressed as the concentration that produces 50% of inhibition of anandamide uptake (IC50) calculated with GraphPad.

[2] = biological target: T1, Fatty Acid Amide Hydrolase (FAAH) (Rattus norvegicus, UniProt P97612); test: biochemical
T1 sequence (P97612 1-579): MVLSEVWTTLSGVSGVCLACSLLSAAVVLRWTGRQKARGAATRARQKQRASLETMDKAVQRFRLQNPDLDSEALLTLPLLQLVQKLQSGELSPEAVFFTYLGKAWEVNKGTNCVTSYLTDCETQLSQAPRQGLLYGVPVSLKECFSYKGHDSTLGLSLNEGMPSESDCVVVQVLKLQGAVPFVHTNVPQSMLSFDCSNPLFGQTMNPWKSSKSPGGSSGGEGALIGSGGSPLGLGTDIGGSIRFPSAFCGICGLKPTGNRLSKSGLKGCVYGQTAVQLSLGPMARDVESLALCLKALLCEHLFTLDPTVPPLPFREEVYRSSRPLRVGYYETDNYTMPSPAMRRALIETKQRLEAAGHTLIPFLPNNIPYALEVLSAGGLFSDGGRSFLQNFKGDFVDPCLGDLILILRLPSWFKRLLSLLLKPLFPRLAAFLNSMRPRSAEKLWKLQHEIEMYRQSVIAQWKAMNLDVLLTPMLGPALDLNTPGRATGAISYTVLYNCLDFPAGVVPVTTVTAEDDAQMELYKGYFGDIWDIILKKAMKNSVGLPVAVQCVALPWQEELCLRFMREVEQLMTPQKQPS
Method: Assay for Fatty Acid Amide Hydrolase (FAAH)
The effect of compounds on the enzymatic hydrolysis of [^14C]anandamide (6 μM) was studied using membranes prepared from rat brain incubated with increasing concentrations of compounds in 50 mM Tris-HCl, pH 9, for 30 minutes at 37° C. (Di Marzo et al., 2002). [^14C]ethanolamine produced from [^14C]anandamide hydrolysis was measured counting the scintillation of the aqueous phase after extraction of the incubation mixture with 2 volumes of CHCl3/CH3OH (2:1 by volume). […]

[3] = biological target: human recombinant CB1 receptor (Homo sapiens, UniProt P21554); type: binding; design: purchased Perkin-Elmer; host or cells: COS cells
human recombinant CB1 receptor, sequence (P21554 whole entry): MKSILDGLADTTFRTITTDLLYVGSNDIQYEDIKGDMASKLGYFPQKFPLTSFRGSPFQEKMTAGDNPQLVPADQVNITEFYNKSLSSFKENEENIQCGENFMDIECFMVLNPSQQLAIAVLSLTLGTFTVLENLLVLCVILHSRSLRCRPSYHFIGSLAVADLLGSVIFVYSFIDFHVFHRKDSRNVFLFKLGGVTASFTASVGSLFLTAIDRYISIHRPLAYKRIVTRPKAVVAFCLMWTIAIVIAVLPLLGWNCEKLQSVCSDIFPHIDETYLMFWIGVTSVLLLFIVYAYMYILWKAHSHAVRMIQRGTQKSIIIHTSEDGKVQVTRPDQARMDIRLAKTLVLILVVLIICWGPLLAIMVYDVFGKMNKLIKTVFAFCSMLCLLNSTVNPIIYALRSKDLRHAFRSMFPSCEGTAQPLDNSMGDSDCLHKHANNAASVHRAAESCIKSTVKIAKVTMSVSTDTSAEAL

[4] = biological target: human recombinant CB2 receptor (Homo sapiens, UniProt P34972); test: CB2 binding, [3H]CP55,940 displacement, membranes from transfected COS cells; design: purchased Perkin-Elmer; host or cells: COS cells; details: for pKi: recombinant human CB2, COS cell membranes
human recombinant CB2 receptor, sequence (P34972 whole entry): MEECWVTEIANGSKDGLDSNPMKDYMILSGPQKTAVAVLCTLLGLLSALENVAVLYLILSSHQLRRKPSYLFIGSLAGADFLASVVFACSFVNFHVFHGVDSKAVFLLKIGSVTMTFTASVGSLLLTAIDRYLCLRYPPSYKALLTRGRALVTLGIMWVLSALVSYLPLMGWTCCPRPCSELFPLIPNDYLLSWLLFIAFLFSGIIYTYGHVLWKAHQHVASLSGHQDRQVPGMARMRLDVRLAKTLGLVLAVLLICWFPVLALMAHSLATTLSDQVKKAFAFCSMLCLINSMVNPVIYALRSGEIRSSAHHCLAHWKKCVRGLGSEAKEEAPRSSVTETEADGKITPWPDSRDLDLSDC

CB2 = biological target: T2, CB2 (Rattus norvegicus, UniProt Q9QZN9); test: Preliminary selection with rat spleen membranes; type: binding; details: rat brain and spleen membranes, read-out: CB2 (n.a. class, IC50 in preliminary selection)
T2 construct: from tissue; host or cells: rat spleen membranes
T2 sequence (Q9QZN9 1-360): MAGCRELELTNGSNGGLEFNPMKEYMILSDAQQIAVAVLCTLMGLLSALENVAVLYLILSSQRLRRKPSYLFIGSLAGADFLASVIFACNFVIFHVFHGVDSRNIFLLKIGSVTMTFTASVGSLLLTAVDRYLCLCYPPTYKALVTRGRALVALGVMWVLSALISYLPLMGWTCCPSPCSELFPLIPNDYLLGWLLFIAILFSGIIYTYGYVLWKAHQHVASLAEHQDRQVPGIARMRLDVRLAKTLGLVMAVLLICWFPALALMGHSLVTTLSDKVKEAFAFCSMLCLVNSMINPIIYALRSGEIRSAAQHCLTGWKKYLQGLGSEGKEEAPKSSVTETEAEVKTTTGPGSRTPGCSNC

CB1 = biological target: T3, CB1 (Rattus norvegicus, UniProt P20272); test: Preliminary selection with rat brain membranes; type: binding; details: rat brain and spleen membranes, read-out: CB1 (n.a. class, IC50 in preliminary selection)
T3 construct: from tissue; host or cells: rat brain membranes
T3 sequence (P20272 whole entry): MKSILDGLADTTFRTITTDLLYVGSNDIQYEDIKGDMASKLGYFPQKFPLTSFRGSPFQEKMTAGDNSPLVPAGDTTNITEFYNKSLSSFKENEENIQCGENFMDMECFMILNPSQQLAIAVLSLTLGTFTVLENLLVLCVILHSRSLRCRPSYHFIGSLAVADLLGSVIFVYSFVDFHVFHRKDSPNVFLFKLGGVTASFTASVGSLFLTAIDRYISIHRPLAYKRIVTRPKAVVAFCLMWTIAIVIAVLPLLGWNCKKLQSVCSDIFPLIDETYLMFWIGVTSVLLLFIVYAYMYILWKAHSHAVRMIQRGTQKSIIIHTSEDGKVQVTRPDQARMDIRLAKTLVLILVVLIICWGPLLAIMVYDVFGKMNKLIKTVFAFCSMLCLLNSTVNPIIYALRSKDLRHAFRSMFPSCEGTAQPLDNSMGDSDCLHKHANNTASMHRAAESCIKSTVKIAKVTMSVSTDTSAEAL

[5] = biological target: T4, CB1 cannabinoid receptors (Mus musculus, UniProt P47746); test: Forskolin-induced cyclic AMP in N18TG2 neuroblastoma cells; type: cell-based; details: N18TG2 cells
T4 construct: N18TG2 mouse neuroblastoma cells, which constitutively and selectively express the CB 1 cannabinoid receptors; endogenous in cells; host or cells: N18TG2 mouse neuroblastoma cells
T4 sequence (P47746 whole entry): as the sequence (P20272 whole entry) above, with E95D counted along it
Method: After incubation, 800 μl of methanol were added, cells were extracted and cyclic AMP was determined with a cyclic AMP assay kit (Amersham, UK), in accordance with the supplier's recommendations.

[6] = anandamide uptake, read-out: AMT IC50
[7] = rat brain membranes, read-out: FAAH (n.a. class)
[8] = recombinant human CB1, COS cell membranes
[9] = rat brain membranes, [14C]anandamide 6 μM, read-out: FAAH IC50

SMILES | melting point | pIC50 [1, 6] | pKi [3, 8] | pKi [4] | pIC50 (CB2) | also measured
CCCCCCCCCCCCCCCc1cccc(OCCCCCC(=O)NCCO)c1 [Compound 15, 6-(3-Pentadecyl-phenoxy)-hexanoic acid (2-hydroxy-ethyl)-amide] | 62.7 °C | < 4.60 | – | – | – | pIC50 [2, 7]: < 5.00
CCCCCCCCCCCCCCCc1cccc(OCCCCCC(=O)Nc2ccc(O)cc2)c1 [Compound 17, 6-(3-Pentadecyl-phenoxy)-hexanoic acid (4-hydroxy-phenyl)-amide] | 103.2 °C | < 4.60 | – | – | – | pIC50 [2, 7]: < 5.00
CCCCCc1cc(O)cc(OCCCCCCCCCCC(=O)NCCO)c1 [Compound 24, 11-(3-Hydroxy-5-pentyl-phenoxy)-undecanoic acid (2-hydroxy-ethyl)-amide] | 55 to 56 °C | 4.60 | 6.10 | 6.80 | – | pIC50 [2]: < 5.00
CCCCCc1cc(O)cc(OCCCCCCCCCCC(=O)Nc2ccc(O)cc2)c1 [Compound 26, 11-(3-Hydroxy-5-pentyl-phenoxy)-undecanoic acid (4-hydroxy-phenyl)-amide] | – | – | 5.52 | 5.85 | – | pIC50 ([1]; read-out: AMT (n.a. class)): < 5.00; pIC50 [2]: < 5.00
CCCCCc1cc(O)cc(OCCCCCCCCCCCCCCCC(=O)NCCO)c1 [Compound 27, 16-(3-Hydroxy-5-pentyl-phenoxy)-hexadecanoic acid (2-hydroxy-ethyl)-amide] | 84 to 85 °C | – | 4.90 | – | < 5.00 | –
O=C(CCCCCCCCCCOc1cccc(O)c1)NCCO [Compound 33, 11-(3-Hydroxy-phenoxy)-undecanoic acid (2-hydroxy-ethyl)-amide] | 72.1 °C | – | – | – | < 5.00 | pIC50 [2]: < 5.00
O=C(CCCCCCCCCCOc1cccc(O)c1)Nc1ccc(O)cc1 [Compound 35, 11-(3-Hydroxy-phenoxy)-undecanoic acid (4-hydroxy-phenyl)-amide] | 121.2 °C | – | – | – | – | pIC50 (CB1): < 5.00
O=C(CCCCCCCCCCCCCCCOc1cccc(O)c1)NC1CC1 [Compound 37, 16-(3-Hydroxy-phenoxy)-hexadecanoic acid cyclopropylamide] | 105.6 °C | – | 5.37 | – | < 5.00 | –
O=C(CCCCCCCCCCCCCCCOc1cccc(O)c1)Nc1ccc(O)cc1 [Compound 38, 16-(3-Hydroxy-phenoxy)-hexadecanoic acid (4-hydroxy-phenyl)-amide] | – | – | 5.30 | – | – | –
CCCCCCc1ccc(OCCCCCC(=O)NC2CC2)cc1O [Compound 40, 6-(3-Hydroxy-4-hexyl-phenoxy)-hexanoic acid cyclopropylamide] | 134.2 °C | – | 6.74 | 6.27 | – | functional behaviour at CB1 receptors ([5]; cAMP): inverse agonist/antagonist; pEC50 ([5]; forskolin 1 μM, read-out: half-maximum effect concentration, stimulation of forskolin-induced cAMP formation): 6.82; pIC50 [2, 7]: < 5.00
CCCCCCc1ccc(OCCCCCCCCCCC(=O)NCCO)cc1O [Compound 42, 11-(3-Hydroxy-4-hexyl-phenoxy)-undecanoic acid (2-hydroxy-ethyl)-amide] | 85.3 °C | – | – | 5.57 | – | pIC50 ([1]; read-out: AMT (n.a. class)): < 5.00; pIC50 [2, 7]: < 5.00
CCCCCCc1ccc(OCCCCCCCCCCC(=O)NC2CC2)cc1O [Compound 43, 11-(3-Hydroxy-4-hexyl-phenoxy)-undecanoic acid cyclopropylamide] | – | < 4.60 | – | 6.46 | – | selectivity for CB2 with respect to the CB1 receptors ([4]; CB1 Ki / CB2 Ki): at least 26 times; pIC50 [2]: < 5.00
CCCCCCc1ccc(OCCCCCCCCCCC(=O)Nc2ccc(O)cc2)cc1O [Compound 44, 11-(3-Hydroxy-4-hexyl-phenoxy)-undecanoic acid (4-hydroxy-phenyl)-amide] | 121.2 °C | < 4.60 | – | – | – | pIC50 (CB1): < 5.00; pIC50 [2, 9]: 4.30
CCCCCCc1ccc(OCCCCCCCCCCCCCCCC(=O)NCCO)cc1O [Compound 45, 16-(3-Hydroxy-4-hexyl-phenoxy)-hexadecanoic acid (2-hydroxy-ethyl)-amide] | 96.4 °C | – | – | – | < 5.00 | pIC50 (CB1): < 5.00
CCCCCCc1ccc(OCCCCCCCCCCCCCCCC(=O)NC2CC2)cc1O [Compound 46, 16-(3-Hydroxy-4-hexyl-phenoxy)-hexadecanoic acid cyclopropylamide] | 114.3 °C | – | – | – | < 5.00 | pIC50 (CB1): < 5.00
CCCCCCc1ccc(O)cc1OCCCCCCCCCCC(=O)NCCO [Compound 51, 11-(2-Hexyl-5-hydroxy-phenoxy)-undecanoic acid (2-hydroxy-ethyl)-amide] | 75.4 °C | < 4.60 | – | 6.38 | – | pIC50 [2]: < 5.00
CCCCCCc1ccc(O)cc1OCCCCCCCCCCC(=O)Nc1ccc(O)cc1 [Compound 53, 11-(2-Hexyl-5-hydroxy-phenoxy)-undecanoic acid (4-hydroxy-phenyl)-amide] | 108.7 °C | < 4.60 | – | 5.68 | – | pKi [3]: 5.48; pIC50 [2, 9]: 4.74
CCCCCCc1ccc(O)cc1OCCCCCCCCCCCCCCCC(=O)NCCO [Compound 54, 16-(2-Hexyl-5-hydroxy-phenoxy)-hexadecanoic acid (2-hydroxy-ethyl)-amide] | 77.2 °C | – | – | – | < 5.00 | pIC50 (CB1): < 5.00
CCCCCCc1ccc(O)cc1OCCCCCCCCCCCCCCCC(=O)NC1CC1 [Compound 55, 16-(2-Hexyl-5-hydroxy-phenoxy)-hexadecanoic acid cyclopropylamide] | 72.8 °C | – | – | 5.60 | – | pKi [3]: 5.26
CCCCCCc1ccc(O)cc1OCCCCCCCCCCCCCCCC(=O)Nc1ccc(O)cc1 [Compound 56, 16-(2-Hexyl-5-hydroxy-phenoxy)-hexadecanoic acid (4-hydroxy-phenyl)-amide] | 82.4 °C | – | 5.52 | – | < 5.00 | –
